According to US20230339851A1, “CXCR6 SULFONAMIDE COMPOUNDS” (CHEMOCENTRYX, INC., priority 2022, published 2023):

What follows are compounds tested against T1, human CXCR6 (Homo sapiens, UniProt O00574) (assay: Radioligand Binding Assay (125I-CXCL16 displacement)). Settings: L1.2 cells stably transfected with human CXCR6 cDNA, 0.1 nM 125I-CXCL16, 4° C., three-hour incubation; read-out: Potency (IC50).
T1 construct: expressed in transfected cells
Procedure, shortened: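 L1.2 cells stably expressing human CXCR6 incubated 3 h at 4 °C in HBSS/0.1% BSA with 0.1 nM 125I-CXCL16 and graded compound concentrations. Bound radioactivity collected by filtration and counted; IC50 from 3-parameter nonlinear regression.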

T1 sequence (O00574 whole entry): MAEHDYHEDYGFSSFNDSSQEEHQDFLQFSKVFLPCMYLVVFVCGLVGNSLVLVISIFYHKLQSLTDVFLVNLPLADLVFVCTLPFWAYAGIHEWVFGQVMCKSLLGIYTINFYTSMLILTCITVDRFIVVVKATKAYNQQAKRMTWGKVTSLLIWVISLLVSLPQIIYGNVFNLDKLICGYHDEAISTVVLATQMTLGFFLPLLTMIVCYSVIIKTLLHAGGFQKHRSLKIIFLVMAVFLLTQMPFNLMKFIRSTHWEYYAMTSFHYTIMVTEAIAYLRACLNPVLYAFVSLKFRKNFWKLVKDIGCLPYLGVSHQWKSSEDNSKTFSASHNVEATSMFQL

| SMILES | IC50 [nM] |
| --- | --- |
| CCOc1cc(NC(=O)[C@H]2CC=CC[C@H]2C(=O)O)ccc1S(=O)(=O)Nc1ccc(C)c(OC(F)(F)F)c1 (racemic) [Example 1.333] | 750 to 2000 |
| CCOc1cc(NC(=O)[C@H](C2CCCC2)[C@@H](C)O)ccc1S(=O)(=O)Nc1cccc(OC(F)(F)F)c1 (racemic) [Example 1.147] | ≤ 200 |
| CCOc1cc(NC(=O)C(O)C2CCCC2)ccc1S(=O)(=O)Nc1cccc(OC(F)(F)F)c1 (centres unmarked) [Example 1.177] | ≤ 200 |
| COc1cc(S(=O)(=O)Nc2cccc(C(F)(F)F)c2)c(C)cc1NC(C)=O [Example 1.354] | 2000 to 20000 |
| CCOc1cc(NC(=O)[C@H]2CC[C@H](OC)CC2)ccc1S(=O)(=O)Nc1cccc(OC(F)(F)F)c1 [Example 1.028] | 750 to 2000 |
| COc1cc(NC(=O)C(C)C2CCCCC2)ccc1S(=O)(=O)Nc1cccc(C(F)(F)F)c1 (centres unmarked) [Example 1.273] | 750 to 2000 |
| CCOc1cc(NC(=O)C2CC=CC2)ccc1S(=O)(=O)Nc1cccc(OC(F)(F)F)c1 [Example 1.319] | 750 to 2000 |
| CCOc1cc(NC(=O)C2CCC(=O)N(CC)C2)ccc1S(=O)(=O)Nc1cccc(OC(F)(F)F)c1 (centres unmarked) [Example 1.120] | 2000 to 20000 |
| CCOc1cc(NC(=O)C(O)c2ccc(Cl)cc2)ccc1S(=O)(=O)Nc1cccc(OC(F)(F)F)c1 (centres unmarked) [Example 1.338] | ≤ 200 |
| CCOc1cc(NC(=O)[C@@H](NC(C)=O)C(C)CC)ccc1S(=O)(=O)Nc1cccc(OC(F)(F)F)c1 (some centres unmarked) [Example 1.349] | ≤ 200 |
| CCn1nccc1C(=O)Nc1ccc(S(=O)(=O)Nc2cccc(C(F)(F)F)c2)c(OC)c1 [Example 1.238] | 200 to 750 |
| CCOc1cc(NC(=O)[C@@H](O)C(C)C)ccc1S(=O)(=O)Nc1ccc(F)c(C2CC2)c1 [Example 1.211] | ≤ 200 |
| CCOc1cc(NC(=O)c2cncnc2)ccc1S(=O)(=O)Nc1cccc(OC(F)(F)F)c1 [Example 1.171] | ≤ 200 |
| CCOc1cc(NC(=O)[C@@H](CO)c2ccccc2)ccc1S(=O)(=O)Nc1ccc(Cl)c(Cl)c1 [Example 1.175] | 200 to 750 |
| COc1cc(NC(=O)c2ccnn2C)ccc1S(=O)(=O)Nc1ccc(OC(F)(F)F)cc1 [Example 1.228] | 200 to 750 |
| CCc1cc(C(=O)Nc2ccc(S(=O)(=O)Nc3cccc(C(F)(F)F)c3)c(OC)c2)n(C)n1 [Example 1.027] | 750 to 2000 |
| Cc1cc(NC(=O)C2CCCO2)ccc1S(=O)(=O)Nc1cccc(C(F)(F)F)c1 (centres unmarked) [Example 1.271] | 2000 to 20000 |
| CCOc1cc(NC(=O)[C@@H](O)c2ccccc2)ccc1S(=O)(=O)Nc1ccc(C)c(OC(F)(F)F)c1 [Example 1.279] | ≤ 200 |
| CCOc1cc(NC(=O)[C@@H](NC(N)=O)C(C)C)ccc1S(=O)(=O)Nc1cccc(OC(F)(F)F)c1 [Example 1.334] | ≤ 200 |
| COc1cc(NC(=O)c2ccnn2C)ccc1S(=O)(=O)Nc1ccccc1OC(F)(F)F [Example 1.016] | 2000 to 20000 |
| CCOc1cc(NC(=O)[C@@H](CO)C2CC2)ccc1S(=O)(=O)Nc1cccc(OC(F)(F)F)c1 [Example 1.053] | ≤ 200 |
| Cc1cc(NC(=O)c2ccnnc2)ccc1S(=O)(=O)Nc1cccc(C(F)(F)F)c1 [Example 1.093] | 750 to 2000 |
| CCOc1cc(NC(=O)[C@@H](CO)c2ccccc2)ccc1S(=O)(=O)Nc1cccc(OC(C)C)c1 [Example 1.119] | 200 to 750 |
| CCOc1cc(NC(=O)CC(O)C2CCOCC2)ccc1S(=O)(=O)Nc1cccc(OC(F)(F)F)c1 (centres unmarked) [Example 1.401] | 200 to 750 |

| SMILES | IC50 [nM] |
| --- | --- |
| COc1cc(NC(=O)[C@@H]2CCCC[C@H]2O)ccc1S(=O)(=O)Nc1cccc(OC(F)(F)F)c1 [Example 1.049] | 750 to 2000 |
| COc1cc(NC(C)=O)ccc1S(=O)(=O)Nc1cccc(C(F)(F)F)c1 [Example 1.374] | 2000 to 20000 |
| CCOc1cc(NC(=O)CCOC)ccc1S(=O)(=O)Nc1cccc(OC(F)(F)F)c1 [Example 1.186] | 750 to 2000 |
| COc1cc(NC(=O)c2ccnn2C)ccc1S(=O)(=O)Nc1ccc(F)c(C(F)(F)F)c1 [Example 1.248] | 750 to 2000 |
| CCOc1cc(NC(=O)[C@@H](NC(=O)CC)C(C)C)ccc1S(=O)(=O)Nc1cccc(OC(F)(F)F)c1 [Example 1.241] | ≤ 200 |
| CCOc1cc(NC(=O)c2ccn(C)c(=O)c2C)ccc1S(=O)(=O)Nc1cccc(OC(F)(F)F)c1 [Example 1.332] | ≤ 200 |
| Cc1cc(NC(=O)C2(C)CCCCC2)ccc1S(=O)(=O)Nc1cccc(C(F)(F)F)c1 [Example 1.265] | 2000 to 20000 |
| CCOc1cc(NC(=O)[C@@H](CO)c2ccccc2)ccc1S(=O)(=O)Nc1cccc(C2CC2)c1 [Example 1.080] | ≤ 200 |
| CCOc1cc(NC(=O)C(O)C(C)O)ccc1S(=O)(=O)Nc1cccc(OC(F)(F)F)c1 (centres unmarked) [Example 1.164] | 750 to 2000 |
| C=Cc1ccc(NS(=O)(=O)c2ccc(NC(=O)[C@@H](CO)C3CC3)cc2OCC)cc1C [Example 1.146] | ≤ 200 |
| CCOc1cc(NC(=O)[C@@H](O)C(C)C)ccc1S(=O)(=O)Nc1ccc(C(F)(F)F)cc1 [Example 1.244] | 200 to 750 |
| Cc1ccccc1C(=O)Nc1ccc(S(=O)(=O)Nc2cccc(C(F)(F)F)c2)c(C)c1 [Example 1.293] | 200 to 750 |
| CCOc1cc(NC(=O)c2cccnc2N)ccc1S(=O)(=O)Nc1cccc(OC(F)(F)F)c1 [Example 1.162] | ≤ 200 |
| Cc1cc(NC(=O)C2CCOC2)ccc1S(=O)(=O)Nc1cccc(C(F)(F)F)c1 (centres unmarked) [Example 1.249] | 2000 to 20000 |
| CCOc1cc(NC(=O)[C@@H](CO)C(C)C)ccc1S(=O)(=O)Nc1ccc(OC)c(C(F)(F)F)c1 [Example 1.005] | ≤ 200 |
| CCOc1cc(NC(=O)C(C(=O)NCCO)C2CCCC2)ccc1S(=O)(=O)Nc1cccc(OC(F)(F)F)c1 (centres unmarked) [Example 1.339] | ≤ 200 |
| C=C(C)CC(C(=O)O)C(=O)Nc1ccc(S(=O)(=O)Nc2cccc(OC(F)(F)F)c2)c(OCC)c1 (centres unmarked) [Example 1.176] | ≤ 200 |
| CCOc1cc(NC(=O)c2cccnc2)ccc1S(=O)(=O)Nc1cccc(OC(F)(F)F)c1 [Example 1.403] | ≤ 200 |
| CCOc1cc(NC(=O)C(CO)C2CCOCC2)ccc1S(=O)(=O)Nc1cccc(OC(F)(F)F)c1 (centres unmarked) [Example 1.092] | 200 to 750 |
| CCOc1cc(NC(=O)[C@@H](O)C(C)C)ccc1S(=O)(=O)Nc1ccc(C)c(Cl)c1 [Example 1.368] | ≤ 200 |
| COc1cc(NC(=O)C2CCOCC2)ccc1S(=O)(=O)Nc1cccc(C(F)(F)F)c1 [Example 1.304] | 750 to 2000 |
| Cc1cc(NC(=O)c2cccnc2)ccc1S(=O)(=O)Nc1cccc(C(F)(F)F)c1 [Example 1.330] | 200 to 750 |
| O=C(Nc1ccc(S(=O)(=O)Nc2cccc(OC(F)(F)F)c2)c(F)c1)C(CO)c1ccccc1 (centres unmarked) [Example 1.395] | 750 to 2000 |
| COc1cc(NC(=O)[C@@H]2C=CCN2C)ccc1S(=O)(=O)Nc1cccc(C(F)(F)F)c1 [Example 1.194] | 2000 to 20000 |

Further lines, results first:

| IC50 [nM] | SMILES |
| --- | --- |
| ≤ 200 | CCOc1cc(NC(=O)C(c2ccccc2)C(C)O)ccc1S(=O)(=O)Nc1cccc(OC(F)(F)F)c1 (centres unmarked) [Example 1.446] |
| ≤ 200 | COc1cc(NC(=O)[C@@H](O)C(C)C)ccc1S(=O)(=O)Nc1ccc(C)c(OC(F)(F)F)c1 [Example 1.557] |
| 750 to 2000 | COc1cc(NC(=O)c2cc(C(F)(F)F)nn2C)ccc1S(=O)(=O)Nc1cccc(C(F)(F)F)c1 [Example 1.430] |
| 750 to 2000 | Cc1cc(NC(=O)C2CCCCC2)ccc1S(=O)(=O)Nc1cccc(C(F)(F)F)c1 [Example 1.575] |
| 2000 to 20000 | CCOc1cc(NC(=O)C2CCN(C(=O)OC(C)(C)C)CC2)ccc1S(=O)(=O)Nc1cccc(OC(F)(F)F)c1 [Example 1.433] |
| 2000 to 20000 | CC(=O)Nc1ccc(S(=O)(=O)Nc2cccc(C(F)(F)F)c2)c(C(C)C)c1 [Example 1.573] |
| ≤ 200 | CCOc1cc(NC(=O)[C@@H](CO)c2ccccc2)ccc1S(=O)(=O)Nc1cccc(C(C)C)c1 [Example 1.541] |
| 2000 to 20000 | COc1cc(NC(=O)CC2CCOC2)ccc1S(=O)(=O)Nc1cccc(C(F)(F)F)c1 (centres unmarked) [Example 1.526] |
| 200 to 750 | CCOc1cc(NC(=O)Cc2ccccc2OC)ccc1S(=O)(=O)Nc1cccc(OC(F)(F)F)c1 [Example 1.566] |
| ≤ 200 | CCOc1cc(NC(=O)[C@@H](NC(C)=O)C(C)C)ccc1S(=O)(=O)Nc1ccc(Cl)c(OC(F)(F)F)c1 [Example 1.576] |
| 750 to 2000 | CCOc1cc(NC(=O)c2ccc(=O)n(C)c2)ccc1S(=O)(=O)Nc1cccc(OC(F)(F)F)c1 [Example 1.515] |
| ≤ 200 | CCOc1cc(NC(=O)[C@H]2CCCC[C@H]2O)ccc1S(=O)(=O)Nc1cccc(OC(F)(F)F)c1 [Example 1.432] |
| ≤ 200 | CCOc1cc(NC(=O)[C@H]2CCOC[C@H]2COC)ccc1S(=O)(=O)Nc1cccc(OC(F)(F)F)c1 [Example 1.499] |
| 750 to 2000 | Cc1cc(NC(=O)c2ccc(Cl)cc2)ccc1S(=O)(=O)Nc1cccc(C(F)(F)F)c1 [Example 1.407] |
| 200 to 750 | CCOc1cc(NC(=O)[C@@H](O)c2ccccc2)ccc1S(=O)(=O)Nc1ccc(C2CC2)c(OC(F)(F)F)c1 [Example 1.556] |
| ≤ 200 | CCOc1cc(NC(=O)[C@@H](CO)c2ccccc2)ccc1S(=O)(=O)Nc1ccc(C)c(C(C)C)c1 [Example 1.439] |
| 750 to 2000 | COc1cc(NC(=O)c2ccnn2C)ccc1S(=O)(=O)Nc1ccc(OC(F)(F)F)c(Cl)c1 [Example 1.559] |
| 200 to 750 | CCOc1cc(NC(=O)C2CCCOC2)ccc1S(=O)(=O)Nc1cccc(OC(F)(F)F)c1 (centres unmarked) [Example 1.420] |
| ≤ 200 | CCOc1cc(NC(=O)C(O)C(F)(F)F)ccc1S(=O)(=O)Nc1cccc(OC(F)(F)F)c1 (centres unmarked) [Example 1.406] |
| ≤ 200 | CCOc1cc(NC(=O)C(C(=O)O)C2CCCC2)ccc1S(=O)(=O)Nc1cccc(OC(F)(F)F)c1 (centres unmarked) [Example 1.479] |
| 2000 to 20000 | Cc1cc(NC(=O)CN(C)C)ccc1S(=O)(=O)Nc1cccc(C(F)(F)F)c1 [Example 1.553] |
| 2000 to 20000 | CCOc1cc(NC(=O)C2CCS(=O)(=O)CC2)ccc1S(=O)(=O)Nc1cccc(OC(F)(F)F)c1 [Example 1.470] |
| 200 to 750 | CCOc1cc(NC(=O)C2CC=CCC2)ccc1S(=O)(=O)Nc1cccc(OC(F)(F)F)c1 (centres unmarked) [Example 1.480] |
